What was measured:
MOZ enzyme = MOZ enzyme (Homo sapiens (Human), UniProt Q92794); assay: Moz biochemical assay (AlphaScreen histone H4 peptide acetylation)
wild type pre-B cells = assay: Bioassay 9: cell cycle analysis (DNA content and BrdU); format: cell-based; settings: 1 μM
Experimental: Pre B cells are isolated from bone marrow according to the criterion: cell surface expression of B220, CD19, but not cKit or IgM. Pre-B cells are cultured on OP9 cells with IL7 in the presence of compounds at various concentrations. The stages of the cell cycle in pre-B cells with and without treatment is analysed using flow cytometry to assay, using a stain for DNA content combined with BrdU to determine the proportion of cells in S phase.

[1] = test system: Eμ-Myc pre-leukemia pro-B cells; assay: Bioassay 5: pro-B cell colony formation in methylcellulose, Eμ-Myc; format: cell-based; settings: 1 μM, Eμ-Myc pre-leukemia pro-B cells
Experimental: (§1) Pro-B cells are purified by positive selection using antiCD19-magnetic beads and fluorescence activated cell sorting using the criterion: cell surface expression of B220, CD19 and cKit but not IgM. After purification, 25,000 pro-B cells are seeded onto 3.5 cm culture dishes plate containing methylcellulose (MethoCult M3630, STEM CELL technologies) for 7 days. After 7 days culture, colonies in which there were more than 50 cells are counted. Subsequently, 190,000 pro-B cells are replated into methylcellulose for another 7 days of culture, followed by enumeration.

wild type pro-B cells = assay: Bioassay 5: pro-B cell colony formation in methylcellulose, wild type; format: cell-based
Experimental: as §1

Wild type pre B cells [2] = assay: Bioassay 8: cell cycle analysis (DNA content and Ki67); format: cell-based; settings: 1 μM
Experimental: Pre B cells are isolated from bone marrow according to the criterion: cell surface expression of B220, CD19, but not cKit or IgM. Pre-B cells are cultured on OP9 cells with IL7 in the presence of compounds at various concentrations. The stages of the cell cycle in cultured pre-B cells with and without treatment is analysed by flow cytometry using a stain for DNA content combined with the cell cycle marker Ki67 to enumerate the proportion of cells in different phases of the cell cycle.

Wild type pre B cells [3] = assay: Bioassay 7: pre-B cell number dose response, wild type; format: cell-based; settings: in words
Experimental: Pre B cells are isolated from bone marrow according to the criterion: cell surface expression of B220, CD19, but not cKit or IgM. Pre-B cells are cultured on OP9 cells with IL7 in the presence of compounds at concentrations from 0.01 μM to 20 μM in vitro for 4 days. Cell number is then enumerated and an IC50 is calculated.

Cdc6 mRNA = assay: Bioassay 2: RT-qPCR of MOZ target genes in mouse embryonic fibroblasts; format: cell-based; settings: 5 μM
Experimental: Mouse embryonic fibroblasts are isolated from wild type or Moz heterozygous animals and cultured at 3% oxygen/5% carbon dioxide/92% nitrogen. Cells are plated at a density of 1,020 cells/cm^2 or 2,040 cells/cm^2 or 10,204 cells/cm^2. A reference value for MOZ inhibition is generated through comparison with cells with a complete null mutation of MOZ. The absence of a functional Moz gene leads to senescence in 7-14 days at 3% oxygen.
Cells are plated in triplicate at 2,040 cells/cm^2 in the presence of a test compound. Compounds are tested at 500 nM, 1 μM, 2 μM, 5 μM, 10 μM and 20 μM. Control compounds include those that have a similar structure but show no activity in biochemical assays. […] RT-qPCR is used to assay the levels of MOZ target genes Ink4a, ink4b, Arf, Cdc6, Cdca8, Cdca2, E2f2, Ezh2, Skp2 and Melk.

B cell lineage = assay: Bioassay 10: effect on the B cell lineage in treated mice; format: in vivo; settings: for numbers of pre B cells in the bone marrow: in words, daily I.P. injection; for immature B cells, percentage of WBC per femur / mature B cells, percentage of WBC per femur / pre-B cells, percentage of WBC per femur / pro-B cells, percentage of WBC per femur: wild type mice, 50 mg/kg I.P. daily
Experimental: Mice were treated with compounds at the dosage of 50 mg/kg by I.P injection. Compounds are prepared for injection as a slurry in 50% PEG400/H2O. The effect on the B cell lineage is determined by fluorescent cytometry using characteristic cell surface markers expressed at different stages of B cell development.

INK4a and ARF null cells = assay: Bioassay 1 repeated in INK4a and ARF null cells; format: cell-based; settings: 1 μM, 2 μM, 5 μM, 10 μM
Experimental: Cells are plated in triplicate cultures at 10,204 cells/cm^2 in the presence of a test compound. Compounds are tested at 500 nM, 1 μM, 2 μM, 5 μM, 10 μM and 20 μM. Control compounds include those that have a similar structure but show no activity in biochemical assays. After 48 hours, cells are passaged and counted, then replated at 10,204/cm^2. This procedure is continued for 336 hours. The total number of cells produced at each passage is then calculated and compared between treatment groups. […] Cells are analysed by flow cytometry for the absence of markers of apoptosis by staining with propidium iodide and FITC-conjugated annexin V. The level of DNA damaged is assessed by γH2A.X staining, a marker of DNA strand breaks.
The mechanism of action of these compounds, i.e. causing cell cycle arrest and senescence, was confirmed by repeating this assay using cells in which the INK4a/ARF pathways was inactivated by genetic deletion of a key exon common to both INK4a and the alternative splice product of the CDKN2a locus ARF.

Sequence of MOZ enzyme (Q92794 whole entry, species assumed): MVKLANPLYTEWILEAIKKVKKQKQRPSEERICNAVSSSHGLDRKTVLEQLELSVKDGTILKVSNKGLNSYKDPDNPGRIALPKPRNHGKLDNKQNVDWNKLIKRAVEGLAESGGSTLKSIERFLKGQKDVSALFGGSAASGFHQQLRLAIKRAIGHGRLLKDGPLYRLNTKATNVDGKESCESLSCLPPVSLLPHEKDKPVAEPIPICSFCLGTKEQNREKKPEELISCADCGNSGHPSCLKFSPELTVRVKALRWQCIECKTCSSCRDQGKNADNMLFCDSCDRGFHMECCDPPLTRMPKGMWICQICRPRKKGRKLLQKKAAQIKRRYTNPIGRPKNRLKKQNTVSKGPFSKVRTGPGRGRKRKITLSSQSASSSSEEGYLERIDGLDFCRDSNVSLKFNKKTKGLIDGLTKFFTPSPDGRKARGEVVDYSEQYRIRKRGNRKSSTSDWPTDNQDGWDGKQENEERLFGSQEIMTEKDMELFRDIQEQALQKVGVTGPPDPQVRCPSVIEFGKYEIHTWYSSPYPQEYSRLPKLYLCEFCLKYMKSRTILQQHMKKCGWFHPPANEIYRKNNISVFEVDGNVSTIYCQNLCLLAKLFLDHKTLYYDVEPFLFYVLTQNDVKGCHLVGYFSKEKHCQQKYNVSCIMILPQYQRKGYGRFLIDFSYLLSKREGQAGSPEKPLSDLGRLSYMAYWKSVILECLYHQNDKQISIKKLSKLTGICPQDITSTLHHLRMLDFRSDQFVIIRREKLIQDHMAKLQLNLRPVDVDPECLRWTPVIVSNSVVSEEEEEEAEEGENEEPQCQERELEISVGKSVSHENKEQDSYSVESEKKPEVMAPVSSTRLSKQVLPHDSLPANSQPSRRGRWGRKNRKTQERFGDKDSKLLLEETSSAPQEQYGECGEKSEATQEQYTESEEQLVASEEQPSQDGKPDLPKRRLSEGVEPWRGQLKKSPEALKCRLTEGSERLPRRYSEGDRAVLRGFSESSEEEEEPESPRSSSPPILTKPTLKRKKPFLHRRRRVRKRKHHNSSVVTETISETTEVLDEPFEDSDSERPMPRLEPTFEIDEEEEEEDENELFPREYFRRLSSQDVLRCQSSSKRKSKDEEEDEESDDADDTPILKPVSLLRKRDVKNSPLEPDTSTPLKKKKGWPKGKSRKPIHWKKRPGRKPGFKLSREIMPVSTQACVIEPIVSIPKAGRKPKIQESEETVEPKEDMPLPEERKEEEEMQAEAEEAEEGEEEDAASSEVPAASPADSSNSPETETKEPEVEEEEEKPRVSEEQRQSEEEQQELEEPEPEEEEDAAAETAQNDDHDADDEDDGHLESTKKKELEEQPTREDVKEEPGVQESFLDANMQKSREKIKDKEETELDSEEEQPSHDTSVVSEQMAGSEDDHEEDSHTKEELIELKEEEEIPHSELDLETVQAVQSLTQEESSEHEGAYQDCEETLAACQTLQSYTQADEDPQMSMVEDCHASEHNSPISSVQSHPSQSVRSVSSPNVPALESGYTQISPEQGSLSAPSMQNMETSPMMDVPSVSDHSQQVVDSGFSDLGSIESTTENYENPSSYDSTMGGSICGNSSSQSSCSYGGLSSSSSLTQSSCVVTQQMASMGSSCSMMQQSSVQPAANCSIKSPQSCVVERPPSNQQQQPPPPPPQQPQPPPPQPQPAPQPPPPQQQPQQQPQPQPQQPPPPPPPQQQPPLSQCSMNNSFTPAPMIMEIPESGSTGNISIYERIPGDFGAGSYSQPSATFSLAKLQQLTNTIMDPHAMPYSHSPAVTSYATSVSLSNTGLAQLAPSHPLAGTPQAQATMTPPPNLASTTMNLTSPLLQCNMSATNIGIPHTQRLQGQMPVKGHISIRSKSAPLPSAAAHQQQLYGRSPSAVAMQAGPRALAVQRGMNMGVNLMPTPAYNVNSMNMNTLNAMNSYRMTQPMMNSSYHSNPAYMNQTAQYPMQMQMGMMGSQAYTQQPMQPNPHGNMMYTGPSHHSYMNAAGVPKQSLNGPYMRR

| Structure (SMILES) | IC50 (MOZ enzyme) [nM] | also measured |
| --- | --- | --- |
| O=C(NNS(=O)(=O)c1ccccc1)c1cccc(-c2ccccc2)c1 [Compound 2] | 287 |  |
| Cc1cc(-n2cccn2)c(F)c(C(=O)NNS(=O)(=O)c2ccccc2)c1F [Compound 155] | 71 |  |
| O=C(NNS(=O)(=O)c1ccccc1)c1ccnc(-c2ccccc2)c1 [Compound 106] | 19000 |  |
| O=C(NNS(=O)(=O)c1ccccc1)c1cc(-c2ccnnc2)ccc1F [Compound 108] |  | cells in G0/G1 (BrdU) (wild type pre-B cells): 44.2; cells in G2/M (BrdU) (wild type pre-B cells): 5.2; cells in S (BrdU) (wild type pre-B cells): 46.2; colony number ([1]; primary colonies): 180.5; colony number, secondary colony formation ([1]; secondary colony formation): 78; colony number (wild type pro-B cells; 1 μM, wild type pro-B cells, primary colonies): 245.125; colony number, secondary colony formation (wild type pro-B cells; 1 μM, wild type pro-B cells, secondary colony formation): 77; colony formation (wild type pro-B cells; in words, compared to vehicle): inactive; cells in G0 (Wild type pre B cells [2]; cultured for 4 days): 10.8%; cells in G1 (Wild type pre B cells [2]; cultured for 4 days): 53.7%; cells in G2/M (Wild type pre B cells [2]; cultured for 4 days): 12.1%; cells in S (Wild type pre B cells [2]; cultured for 4 days): 23.6%; cells in G0 (Wild type pre B cells [2]; cultured for 6 days): 8.6%; cells in G1 (Wild type pre B cells [2]; cultured for 6 days): 62.0%; cells in G2/M (Wild type pre B cells [2]; cultured for 6 days): 8.5%; cells in S (Wild type pre B cells [2]; cultured for 6 days): 14.7%; effect on pre B cell proliferation (Wild type pre B cells [3]): has no effect |
| CC(C)c1cccc(C(=O)NNS(=O)(=O)c2ccc3ccccc3c2)c1 [Compound 3] | 7800 |  |
| Cc1cccc(C(=O)NNS(=O)(=O)c2ccc3ccccc3c2)c1F [Compound 4] | 195 |  |
| Cc1cc(-c2ccccc2)c(F)c(C(=O)NNS(=O)(=O)c2ccccc2)c1F [Compound 154] | 10 |  |
| O=C(NNS(=O)(=O)c1ccccc1)c1cccc(-c2cccs2)c1 [Compound 14] | 470 |  |
| O=C(NNS(=O)(=O)c1ccccc1F)c1cc(F)cc(-n2cccn2)c1 [Compound 64] |  | CDC6 mRNA % control (Cdc6 mRNA): 60.9% |
| O=C(NNS(=O)(=O)c1ccccc1)c1cccc(-c2cccnc2)c1 [Compound 98] | 13100 |  |
| O=C(NNS(=O)(=O)c1ccccc1)c1cncc(-c2ccccc2)c1 [Compound 109] | 21300 |  |
| O=C(NNS(=O)(=O)c1ccccc1)c1cccc(-c2ccc(F)cc2)c1 [Compound 25] | 3830 |  |
| O=C(NNS(=O)(=O)c1ccccc1)c1cc(-c2ccccc2)ccc1F [Compound 157] | 17 |  |
| O=C(NNS(=O)(=O)c1ccccc1)c1cc(-c2ccccc2)cc(Cl)c1F [Compound 35] | 82 |  |
| O=C(NNS(=O)(=O)c1ccccc1)c1cccc(-c2cccc(F)c2)c1 [Compound 30] | 721 |  |
| COc1ccc(-c2cccc(C(=O)NNS(=O)(=O)c3ccccc3)c2)cc1 [Compound 26] | 40000 |  |
| Cc1cccc(C(=O)NNS(=O)(=O)c2ccc3ccccc3c2)c1 [Compound 148] | 1770 |  |
| O=C(NNS(=O)(=O)c1ccccc1)c1cccc(-c2ccccc2)n1 [Compound 116] | 16600 |  |

| Structure (SMILES) | IC50 (MOZ enzyme) [nM] | also measured |
| --- | --- | --- |
| O=C(NNS(=O)(=O)c1ccc2ccccc2c1)c1cccc(-c2ccccc2)c1 [Compound 1] | 2950 |  |
| O=C(NNS(=O)(=O)c1ccccc1)c1cccc(-c2ccsc2)c1 [Compound 8] | 162 |  |
| O=C(NNS(=O)(=O)c1ccccc1)c1cccc(-c2ccccc2F)c1 [Compound 29] | 548 |  |
| CCOc1cc(C)cc(C(=O)NNS(=O)(=O)c2ccccc2F)c1 [Compound 137] |  | CDC6 mRNA % control (Cdc6 mRNA): 67.5%; numbers of pre B cells in the bone marrow (B cell lineage): markedly reduced numbers of pre B cells in the bone marrow; immature B cells, percentage of WBC per femur (B cell lineage): 3.92%; mature B cells, percentage of WBC per femur (B cell lineage): 3.16%; pre-B cells, percentage of WBC per femur (B cell lineage): 12.71%; pro-B cells, percentage of WBC per femur (B cell lineage): 1.01% |
| O=C(NNS(=O)(=O)c1ccccc1)c1cccc(-c2ccc(Cl)cc2)c1 [Compound 32] | 25800 |  |
| O=C(NNS(=O)(=O)c1ccccc1)c1cc(-c2ccc(F)cc2)ccc1F [Compound 133] | 839 |  |
| COc1ccccc1-c1cccc(C(=O)NNS(=O)(=O)c2ccccc2)c1 [Compound 27] | 11200 |  |
| O=C(NNS(=O)(=O)c1ccccc1)c1cccc(-c2ccccc2)c1F [Compound 33] | 270 |  |
| N#Cc1cccc(-c2cccc(C(=O)NNS(=O)(=O)c3ccccc3)c2)c1 [Compound 31] | 8550 |  |
| COc1cccc(-c2cccc(C(=O)NNS(=O)(=O)c3ccccc3)c2)c1 [Compound 28] | 3220 |  |
| Cc1cc(-c2ncccn2)cc(C(=O)NNS(=O)(=O)c2ccccc2)c1F [Compound 53] |  | CDC6 mRNA % control (Cdc6 mRNA): 62.8% |
| O=C(NNS(=O)(=O)c1ccccc1)c1cccc(-c2cc[nH]n2)c1 [Compound 7] | 7440 |  |
| O=C(NNS(=O)(=O)c1ccccc1)c1cc(-c2cccs2)cc(Cl)c1F [Compound 37] | 85400 | inhibition of cell proliferation (INK4a and ARF null cells): no inhibition of cell proliferation was detected |
| O=C(NNS(=O)(=O)c1ccccc1)c1cccc(-c2ccccc2Cl)c1 [Compound 34] | 8020 |  |
| O=C(NNS(=O)(=O)c1ccccc1F)c1cccc(OCC2CC2)c1 [Compound 90] | 116 |  |
| O=C(NNS(=O)(=O)c1ccccc1F)c1cc(F)cc(-c2ccccn2)c1 [Compound 46] |  | numbers of pre B cells in the bone marrow (B cell lineage): markedly reduced numbers of pre B cells in the bone marrow; immature B cells, percentage of WBC per femur (B cell lineage): 3.33%; mature B cells, percentage of WBC per femur (B cell lineage): 3.65%; pre-B cells, percentage of WBC per femur (B cell lineage): 10.59%; pro-B cells, percentage of WBC per femur (B cell lineage): 1.14% |
| O=S(=O)(NNCc1cccc(-c2cccc(Cl)c2)c1)c1ccccc1 [Compound 147] | 91000 |  |
| O=C(NNS(=O)(=O)c1ccccc1)c1cccc(I)c1 [Compound 6] | 2040 |  |

Source: patent US10829446B2, “Aryl sulfonohydrazides” (MONASH UNIVERSITY, priority 2015, dated 2020)
